According to PubChem BioAssay (NCI):
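Step 1: Grow cells in 96-well plates. Step 2: Expose to compound for 48 hours at 5 concentrations. Step 3: Interpolate endpoints linearly; if unreached, use highest concentration. GI50 marks 50% less growth. TGI: concentration producing complete growth inhibition.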 Where a SMILES comes first, the peptide text is derived from it. Bridges are numbered along the chain shown (N, C = ends). Roman numbers before positions name the chains, in order. [ ]: non-standard residue; d: D form. The star is where a group is joined. Quinoxaline2carbonyl = O=C(c1cnc2ccccc2n1)*; NMeV = CN[CH](C(=O)O)C(C)C; NMeC = CN[CH](CS)C(=O)O

Legend:
Assay in all cases: NCI-60 cell line screen, 48 h
[1] = test system: SF-539 CNS
[2] = test system: HCT-116 colon
[3] = test system: UO-31 renal
[4] = test system: A549 NSCLC
[5] = test system: CCRF-CEM leukemia
[6] = test system: MDA-MB-435
[7] = test system: OVCAR-5 ovarian
[8] = test system: OVCAR-3 ovarian
[9] = test system: T-47D breast
[10] = test system: SF-268 CNS
[11] = test system: MALME-3M melanoma
[12] = test system: SK-MEL-5 melanoma
[13] = test system: SF-295 CNS
[14] = test system: RPMI-8226 leukemia
[15] = test system: SNB-19 CNS
[16] = test system: HCC-2998 colon
[17] = test system: DU-145 prostate
[18] = test system: OVCAR-4 ovarian
[19] = test system: SW-620 colon
[20] = test system: MCF7 breast
[21] = test system: IGROV1 ovarian
[22] = test system: M14 melanoma
[23] = test system: NCI-H23 lung
[24] = test system: HOP-62 NSCLC
[25] = test system: HCT-15 colon
[26] = test system: UACC-62 melanoma
[27] = test system: CAKI-1 renal
[28] = test system: MOLT-4 leukemia
[29] = test system: SK-OV-3 ovarian
[30] = test system: COLO 205 colon
[31] = test system: U251 CNS
[32] = test system: SK-MEL-2 melanoma
[33] = test system: HL-60(TB) leukemia
[34] = test system: SR leukemia
[35] = test system: HOP-92 NSCLC
[36] = test system: LOX IMVI melanoma
[37] = test system: SK-MEL-28 melanoma
[38] = test system: BT-549 breast
[39] = test system: A498 renal
[40] = test system: SN12C renal
[41] = test system: KM12 colon
[42] = test system: 786-0 renal
[43] = test system: TK-10 renal
[44] = test system: NCI-H522 lung
[45] = test system: HS 578T breast
[46] = test system: NCI-H460 lung
[47] = test system: EKVX NSCLC
[48] = test system: MDA-MB-231 breast
[49] = test system: RXF 393 renal
[50] = test system: SNB-75 CNS
[51] = test system: HT29 colon
[52] = test system: NCI/ADR-RES ovarian
[53] = test system: UACC-257 melanoma
[54] = test system: OVCAR-8 ovarian
[55] = test system: ACHN renal
[56] = test system: K-562 leukemia
[57] = test system: NCI-H226 lung
[58] = test system: PC-3 prostate
[59] = test system: MDA-N

C[C@@H]1O[C@@H](O[C@H]2CC[C@@]3(C)[C@H](CCC4[C@@H]3C(O)C[C@]3(C)[C@@H](c5ccc(=O)oc5)CC[C@]43O)C2)[C@H](O)[C@H](O)[C@H]1O (some centres not stated)
GI50 [1]: 4.21 nM
TGI [1]: 8.97 nM
GI50 [2]: < 3.25 nM
TGI [2]: 5.44 nM
GI50 [3]: 5.77 nM
TGI [3]: 15 nM
GI50 [4]: < 3.25 nM
TGI [4]: 4.41 nM
GI50 [5]: < 3.25 nM
TGI [5]: 7.6 nM
GI50 [6]: 6.33 nM
TGI [6]: 13.1 nM
GI50 [7]: 5.83 nM
TGI [7]: < 11.3 nM
GI50 [8]: 4.31 nM
TGI [8]: 5.97 nM
GI50 [9]: < 3.25 nM
TGI [9]: 24.1 nM
GI50 [10]: < 3.25 nM
TGI [10]: 5.02 nM
GI50 [11]: 6.59 nM
TGI [11]: 16.6 nM
GI50 [12]: 5.61 nM
TGI [12]: 10.7 nM
GI50 [13]: 6.64 nM
TGI [13]: 29.1 nM
GI50 [14]: 7.92 nM
TGI [14]: 27.8 nM
GI50 [15]: 10.8 nM
TGI [15]: 35.7 nM
GI50 [16]: 7.5 nM
TGI [16]: 16.8 nM
GI50 [17]: 3.55 nM
TGI [17]: 5.16 nM
GI50 [18]: < 3.25 nM
GI50 [19]: 4.89 nM
TGI [19]: 12.3 nM
GI50 [20]: 8.28 nM
TGI [20]: 65.9 nM
GI50 [21]: 6.5 nM
TGI [21]: 23.7 nM
GI50 [22]: 6.09 nM
TGI [22]: 14.8 nM
GI50 [23]: < 3.25 nM
TGI [23]: 6.72 nM
GI50 [24]: 3.89 nM
TGI [24]: 5.7 nM
GI50 [25]: 7.86 nM
TGI [25]: 20.9 nM
GI50 [26]: 6.98 nM
TGI [26]: 15.3 nM
GI50 [27]: 4.2 nM
TGI [27]: 15.4 nM
GI50 [28]: < 3.25 nM
GI50 [29]: 5.02 nM
TGI [29]: 9.87 nM
GI50 [30]: 6.64 nM
TGI [30]: 13 nM
GI50 [31]: 5.2 nM
TGI [31]: 9.74 nM
GI50 [32]: 7.41 nM
TGI [32]: 16.3 nM
GI50 [33]: 4.9 nM
TGI [33]: 7.68 nM
GI50 [34]: 3.88 nM
TGI [34]: 10.9 nM
GI50 [35]: 7.86 nM
TGI [35]: 21.6 nM
GI50 [36]: 5.19 nM
TGI [36]: 10.1 nM
GI50 [37]: 6.2 nM
TGI [37]: 11.9 nM
GI50 [38]: < 3.25 nM
TGI [38]: 4.48 nM
GI50 [39]: 8.59 nM
TGI [39]: 35.7 nM
GI50 [40]: < 3.25 nM
TGI [40]: 758 nM
GI50 [41]: 6.96 nM
TGI [41]: 15.7 nM
GI50 [42]: 4.09 nM
TGI [42]: 16.9 nM
GI50 [43]: < 3.25 nM
TGI [43]: 5.55 nM
GI50 [44]: < 3.25 nM
TGI [44]: 3.5 nM
GI50 [45]: < 3.25 nM
TGI [45]: 65.9 nM
GI50 [46]: < 3.25 nM
TGI [46]: 5.09 nM
GI50 [47]: 3.79 nM
TGI [47]: 7.66 nM
GI50 [48]: 11.2 nM
TGI [48]: 36.9 nM
GI50 [49]: 6.4 nM
TGI [49]: 19.4 nM
GI50 [50]: 4.7 nM
TGI [50]: 10.7 nM
GI50 [51]: 4.81 nM
TGI [51]: 9.75 nM
GI50 [52]: < 3.25 nM
TGI [52]: 5.78 nM
GI50 [53]: 5.89 nM
TGI [53]: 12.1 nM
GI50 [54]: 4.15 nM
TGI [54]: 8.01 nM
GI50 [55]: < 3.25 nM
TGI [55]: 8.03 nM
GI50 [56]: 9.84 nM
TGI [56]: 879 nM
GI50 [57]: 6.08 nM
TGI [57]: 10.7 nM
GI50 [58]: 4.62 nM
TGI [58]: 29.6 nM

CC1NC(=O)C(NC(=O)c2cnc3ccccc3n2)COC(=O)C(C(C)C)N(C)C(=O)C2CSSCC(C(=O)N(C)C(C(C)C)C(=O)OCC(NC(=O)c3cnc4ccccc4n3)C(=O)NC(C)C(=O)N2C)N(C)C1=O (configuration not stated) (I: Quinoxaline2carbonyl-SA[NMeC][NMeV] / II: Quinoxaline2carbonyl-SA[NMeC][NMeV]; ester I:1-II:C, I:C-II:1; disulfide I:3-II:3; configuration not given here)
TGI [2]: 14000 nM
TGI [4]: 2780 nM
TGI [5]: 229 nM
TGI [6]: < 10 nM
TGI [7]: > 4640 nM
TGI [8]: > 100000 nM
TGI [10]: 64.1 nM
TGI [11]: < 10 nM
TGI [13]: 16900 nM
TGI [14]: < 10 nM
TGI [15]: > 100000 nM
TGI [16]: < 10 nM
TGI [18]: 254 nM
TGI [19]: 2980 nM
TGI [20]: < 10 nM
TGI [22]: < 10 nM
TGI [23]: < 13.3 nM
TGI [24]: 2270 nM
TGI [25]: 365 nM
TGI [26]: < 10 nM
TGI [27]: > 48700 nM
TGI [28]: > 4640 nM
TGI [29]: 6870 nM
TGI [31]: > 31800 nM
TGI [32]: < 10 nM
TGI [33]: < 10 nM
TGI [35]: > 35700 nM
TGI [36]: 10200 nM
TGI [37]: < 10 nM
TGI [38]: < 10 nM
TGI [39]: < 10 nM
TGI [41]: 3170 nM
TGI [42]: 2270 nM
TGI [43]: > 5390 nM
TGI [44]: < 10 nM
TGI [45]: < 10 nM
TGI [46]: 2230 nM
TGI [48]: 294 nM
TGI [49]: < 10 nM
TGI [50]: < 10 nM
TGI [52]: 662 nM
TGI [53]: 16.2 nM
TGI [59]: < 10 nM
TGI [54]: < 215 nM
TGI [55]: 11900 nM
TGI [56]: > 51500 nM
TGI [57]: 23.7 nM
TGI [58]: 1680 nM
